Assay results taken from patent publication US10570148B2, “N-alkyl-2-phenoxyethanamines, their preparation and use” (The Trustees of Columbia University In the City of New York, priority 2013, dated 2020).
Each block holds one compound with its values, some of them ahead of it.

How the values were obtained:
RBP4-TTR interaction [1] = target: T1, RBP4-TTR interaction (Homo sapiens, UniProt P02753); test: TR-FRET (HTRF) assay for retinol-induced RBP4-TTR interaction; type: biochemical; design: human RBP4 fragment (amino acids 19-201); host or cells: Gold(DE3)pLysS E. coli strain (Stratagene), pMAL-c4x vector; conditions: analogs, present-tense paper example
From the text: TR-FPET Assay for Retinol-induced RBP4-TTR Interaction
Binding of a desired RBP4 antagonist displaces retinol and induces hindrance for RBP4-TTR interaction resulting in the decreased FRET signal (FIG. 7). Bacterially expressed MBP-RBP4 and untagged TTR were used in this assay. For the use in the TR-FRET assay the maltose binding protein (MBP)-tagged human RBP4 fragment (amino acids 19-201) was expressed in the Gold(DE3)pLysS E. coli strain (Stratagene) using the pMAL-c4x vector. Following cell lysis, recombinant RBP4 was purified from the soluble fraction using the ACTA FPLC system (GE Healthcare) equipped with the 5-ml the MBP Trap HP column. Human untagged TTR was purchased from Calbiochem. Untagged TTR was labeled directly with Eu^3+ Cryptate-NHS using the HTRF Cryptate Labeling kit from CisBio following the manufacturer's recommendations. HTRF assay was performed in white low volume 384 well plates (Greiner-Bio) in a final assay volume of 16 μl per well. The reaction buffer contained 10 mM Tris-HCl pH 7.5, 1 mM DTT, 0.05% NP-40, 0.05% Prionex, 6% glycerol, and 400 mM KF. Each reaction contained 60 nM […] and 2 nM TTR-Eu along with 26.7 nM of anti-MBP antibody conjugated with d2 (Cisbio). Titration of test compounds in this assay was conducted in the presence of 1 μM retinol. All reactions were assembled in the dark under dim red light and incubated overnight at +4° C. wrapped in aluminum foil. TR-FRET signal was measured in the SpectraMax M5e Multimode Plate Reader (Molecular Device). Fluorescence was excited at 337 nm and two readings per well were taken: Reading 1 for time-gated energy transfer from Eu(K) to d2 (337 nm excitation, […] emission, counting delay 75 microseconds, counting window 100 microseconds) and Reading 2 for Eu(K) time-gated fluorescence (337 nm excitation, 620 rum emission, counting delay 400 microseconds, counting window 400 microseconds). The TR-FRET signal was expressed as the ratio of fluorescence intensity: Flu665/Flu620×10,000.

RBP4 [2] = target: T2, RBP4 (Homo sapiens, UniProt P02753); test: Scintillation proximity RBP4 binding assay (SPA); design: Untagged human RBP4 purified from urine of tubular proteinuria patients; purchased Fitzgerald Industries International; host or cells: urine of tubular proteinuria patients; conditions: analogs, present-tense paper example
Method: Scintillation Proximity RBP4 Binding Assay
Untagged human RBP4 purified from urine of tubular proteinuria patients was purchased from Fitzgerald Industries International. It was biotinylated using the EZ-Link Sulfo-NHS-LC-Biotinylation kit from Pierce following the manufacturer's recommendations. Binding experiments were performed in 96-well plates (OptiPlate, PerkinElmer) in a final assay volume of 100 μl per well in SPA buffer (1×PBS, pH 7.4, 1 mM EDTA, 0.1% BSA, 0.5% CHAPS). The reaction mix contained 10 nM ^3H-Retinol (48.7 Ci/mmol; PerkinElmer), 0.3 mg/well Streptavidin-PVT beads, 50 nM biotinylated RBP4 and a test compound. Nonspecific binding was determined in the presence of 20 µM of unlabeled retinol. The reaction mix was assembled in the dark under dim red light. The plates were sealed with clear tape (TopSeal-A: 96-well microplate, PerkinElmer), wrapped in the aluminum foil, and allowed to equilibrate 6 hours at room temperature followed by overnight incubation at +4° C. Radiocounts were measured using a TopCount NXT counter (Packard Instrument Company).

[3] = system: retinal pigment epithelium cells; conditions: many cell types, including the retinal pigment epithelium cells; cited from earlier work
RBP4-TTR interaction [4] = target: T1, RBP4-TTR interaction; conditions: cited from earlier work
mice = conditions: cited from earlier work
[5] = in vivo; cited from earlier work
Abca4−/− mice = conditions: cited from earlier work
RBP4 [6] = target: T2, RBP4; conditions: cited from earlier work

SMILES: CN(CCOc1ccccc1C(C)(C)C)C(=O)C(=O)O [Compound 13, 2-((2-(2-(Tert-butyl)phenoxy)ethyl)(methyl)amino)-2-oxoacetic Acid]
melting point: 98 to 101 °C

SMILES: CC(C)c1ccccc1OCCN(C)C(=O)Nc1ccccc1C(=O)O [Compound 17, 2-(3-(2-(2-Isopropylphenoxy)ethyl)-3-methylureido)benzoic Acid]
melting point: 146 to 149 °C

SMILES: CN(CCOc1ccccc1C(C)(C)C)C(=O)Nc1ccncc1C(=O)O [Compound 18, 4-(3-(2-(2-(tert-butyl)phenoxy)ethyl)-3-methylureido)nicotinic Acid]
melting point: 218 to 220 °C

SMILES: CN(CCOc1ccccc1C(C)(C)C)C(=O)c1nnc2n1CCOC2 [Compound 25, N-(2-(2-(Tert-butyl)phenoxy)ethyl)-N-methyl-6,8-dihydro-5H-[1,2,4]triazolo[3,4-c][1,4]oxazine-3-carboxamide]
melting point: 116 to 120 °C

SMILES: CN(CCOc1ccccc1C(C)(C)C)C(=O)c1n[nH]c2c1CN(S(C)(=O)=O)C2 [Compound 28, N-(2-(2-(Tert-butyl)phenoxy)ethyl)-N-methyl-5-(methylsulfonyl)-1,4,5,6-tetrahydropyrrolo[3,4-c]pyrazole-3-carboxamide]
melting point: 125 to 133 °C

SMILES: CN(CCOc1ccccc1C(C)(C)C)C(=O)c1n[nH]c2c1CN(S(C)(=O)=O)CC2 [Compound 30, N-(2-(2-(tert-butyl)phenoxy)ethyl)-N-methyl-5-(methylsulfonyl)-4,5,6,7-tetrahydro-1H-pyrazolo[4,3-c]pyridine-3-carboxamide]
melting point: 226 to 230 °C

SMILES: CN(CCOc1ccccc1C(C)(C)C)C(=O)c1n[nH]c2c1CCN(S(C)(=O)=O)C2 [Compound 33, N-(2-(2-(Tert-butyl)phenoxy)ethyl)-N-methyl-6-(methylsulfonyl)-4,5,6,7-tetrahydro-1H-pyrazolo[3,4-c]pyridine-3-carboxamide]
melting point: 233 to 237 °C

SMILES: CN1CCc2c(C(=O)N(C)CCOc3ccccc3C(C)(C)C)n[nH]c2C1 [Compound 34, N-(2-(2-(Tert-butyl)phenoxy)ethyl)-N,6-dimethyl-4,5,6,7-tetrahydro-1H-pyrazolo[3,4-c]pyridine-3-carboxamide]
melting point: 159 to 161 °C

SMILES: COC(=O)c1cc(C)nc(N(C)CCOc2ccccc2C(C)(C)C)n1 [Compound 36, methyl 2-((2-(2-(tert-butyl)phenoxy)ethyl)(methyl)amino)-6-methylpyrimidine-4-carboxylate]
antagonism of retinol-dependent RBP4-TTR interaction (HTRF) (RBP4-TTR interaction [1]): antagonize retinol-dependent RBP4-TTR interaction
RBP4 binding (SPA) (RBP4 [2]): bind to RBP4

SMILES: COC(=O)c1cc(C)nc(N(C)CCOc2cc(C(F)(F)F)cc(C(F)(F)F)c2)n1 [Compound 38, methyl 2-((2-(3,5-bis(trifluoromethyl)phenoxy)ethyl)(methyl)amino)-6-methylpyrimidine-4-carboxylate]
antagonism of retinol-dependent RBP4-TTR interaction (HTRF) (RBP4-TTR interaction [1]): antagonize retinol-dependent RBP4-TTR interaction
RBP4 binding (SPA) (RBP4 [2]): bind to RBP4

SMILES: Cc1cc(C(=O)O)nc(N(C)CCOc2cc(C(F)(F)F)cc(C(F)(F)F)c2)n1 [Compound 39, 2-((2-(3,5-bis(trifluoromethyl)phenoxy)ethyl)(methyl)amino)-6-methylpyrimidine-4-carboxylic acid]
antagonism of retinol-dependent RBP4-TTR interaction (HTRF) (RBP4-TTR interaction [1]): antagonize retinol-dependent RBP4-TTR interaction
RBP4 binding (SPA) (RBP4 [2]): bind to RBP4

SMILES: CC1=C(/C=C/C(C)=C/C=C/C(C)=C/C(=O)Nc2ccc(O)cc2)C(C)(C)CCC1 [fenretinide, N-(4-hydroxy-phenyl)retinamide]
induction of apoptosis [3]: extremely active inducer of apoptosis
disruption of the RBP4-TTR interaction (RBP4-TTR interaction [4]): disrupt the RBP4-TTR interaction
formation of hemangiosarcomas (mice): stimulate formation of hemangiosarcomas
serum RBP4 and retinol [5]: reduce serum RBP4 and retinol
A2E production (Abca4−/− mice; Abca4−/− mice, animal model of excessive bisretinoid accumulation): reduced A2E production
ocular all-trans retinol uptake (Abca4−/− mice; mouse, in vivo): inhibit ocular all-trans retinol uptake
visual cycle (Abca4−/− mice; mouse, in vivo): slow down the visual cycle
binding to RBP4 (RBP4 [6]): bind to RBP4
displacement of all-trans retinol from RBP4 (RBP4 [6]): displace all-trans retinol from RBP4

Further lines, with some results ahead:

melting point: 148 to 151 °C
SMILES: CN(CCOc1ccccc1C(C)(C)C)C(=O)c1c[nH]nn1 [Compound 12, N-(2-(2-(Tert-butyl)phenoxy)ethyl)-N-methyl-1H-1,2,3-triazole-5-carboxamide]

melting point: 73 to 78 °C
SMILES: CN(CCOc1ccc(Cl)cc1C(C)(C)C)C(=O)c1cn2ncccc2n1 [Compound 21, N-(2-(2-(tert-butyl)-4-chlorophenoxy)ethyl)-N-methylimidazo[1,2-b]pyridazine-2-carboxamide]

melting point: 186 to 190 °C
SMILES: CN(CCOc1ccccc1C(C)(C)C)C(=O)c1n[nH]c2ccc(F)cc12 [Compound 22, N-(2-(2-(tert-butyl)phenoxy)ethyl)-5-fluoro-N-methyl-1H-indazole-3-carboxamide]

melting point: 75 to 80 °C
SMILES: CN(CCOc1ccccc1C(C)(C)C)C(=O)c1cn2ncccc2n1 [Compound 23, N-(2-(2-(Tert-butyl)phenoxy)ethyl)-N-methylimidazo[1,2-b]pyridazine-2-carboxamide]

melting point: 157 to 159 °C
SMILES: CN(CCOc1ccccc1C(C)(C)C)C(=O)c1n[nH]c2ncccc12 [Compound 24, N-(2-(2-(Tert-butyl)phenoxy)ethyl)-N-methyl-1H-pyrazolo[3,4-b]pyridine-3-carboxamide]

RBP4 binding (SPA) (RBP4 [2]): bind to RBP4
SMILES: Cc1cc(C(=O)O)nc(N(C)CCOc2ccccc2C(C)(C)C)n1 [Compound 37, 2-((2-(2-(tert-butyl)phenoxy)ethyl)(methyl)amino)-6-methylpyrimidine-4-carboxylic acid]
antagonism of retinol-dependent RBP4-TTR interaction (HTRF) (RBP4-TTR interaction [1]): antagonize retinol-dependent RBP4-TTR interaction
